For 9 molecules, TGI results are on record in PubChem BioAssay (NCI).

Assay in all cases: NCI anticancer screen, dose series, 48 h
Experiment [1] has as its system UACC-62 melanoma.
The subject of experiment [2] is SF-268 CNS.
The subject of experiment [3] is HOP-62 NSCLC.
Experiment [4] deals with MDA-N.
Experiment [5] concerns M14 melanoma.
The subject of experiment [6] is SK-MEL-28 melanoma.
For experiment [7], the system named is NCI-H460 lung.
The test system of experiment [8] is TK-10 renal.
The subject of experiment [9] is DU-145 prostate.
For experiment [10], the system named is IGROV1 ovarian.

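Compound exposure: 48 hours, 5 concentrations, 96-well plates. At the TGI there is no net growth.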 Some results are limits rather than exact numbers.

Take `C/C=C\C(CC(=O)NCCC1CN(C(=O)c2ccccc2)c2ccccc21)CC(=O)OC` (stereo not given): the TGI in [1], in experiment [2], in experiment [3], in experiment [4], in [5] and in experiment [6] was over 100 µM each time. Further, the TGI in experiment [7], in experiment [8], in experiment [9] and in experiment [10] was over 100 µM in each case.

With `CC(C)(NC1=NCCO1)c1ccccc1`, the TGI in experiment [1], in experiment [2], in [3], in experiment [4], in experiment [5] and in experiment [6] was over 100 µM each time. In addition, the TGI in [7], in experiment [8], in experiment [9] and in experiment [10] was over 100 µM throughout.

On to `COc1ccc(C2(C3c4cc(OC)c(OC)cc4CCN3C)SCCCS2)cc1O` (stereo not given), for which the TGI in [1], in [2], in experiment [3], in experiment [4], in experiment [5] and in [6] was over 100 µM throughout. For the same molecule, the TGI in experiment [7], in experiment [8], in experiment [9] and in experiment [10] was over 100 µM throughout.

On to `CS(=O)(=O)O.[Ag]`, for which the TGI turned out to be 31.8 µM in [1]; 39.7 µM in experiment [2]; 65.9 µM in [3]; 19.9 µM in experiment [4]; 9.44 µM in [5]; 35.2 µM in [6]. Moreover, the TGI stood at 49.5 µM in [7], 7.74 µM in experiment [8], 34.2 µM in [9] and 13.7 µM in experiment [10].

Consider `CCOC(=O)C(=Cn1c(=S)[nH]c2ccc([N+](=O)[O-])cc21)C(=O)OCC`, for which the TGI in experiment [1], in [2], in [3], in experiment [4], in [5] and in [6] was over 100 µM in each case. For the same molecule, the TGI in [7], in experiment [8], in experiment [9] and in experiment [10] was over 100 µM in each case.

On to `CN(c1ccccc1Cl)S(=O)(=O)c1ccccc1[N+](=O)[O-]`, for which the TGI in experiment [1] was over 100 µM; in experiment [2], over 100 µM; in experiment [3] it was over 100 µM; in [4], over 100 µM; in experiment [5] it was 46.3 µM; in experiment [6], over 100 µM. For the same molecule, the TGI in [7], in experiment [8], in [9] and in [10] was over 100 µM each time.

In the case of `O=C(OCc1ccccc1)N1c2cc([N+](=O)[O-])ccc2C(=O)N2CCC[C@H]2C1O` (stereo not given in full), the TGI in experiment [1], in experiment [2], in [3], in experiment [4], in experiment [5] and in experiment [6] was over 100 µM in each case. For the same molecule, the TGI in experiment [7], in experiment [8], in experiment [9] and in experiment [10] was over 100 µM throughout.

With `Nc1nc2cc(CNc3ccc(C(=O)NC(CCC(=O)O)C(=O)O)cc3)ccc2nc1-c1ccccc1` (stereo not given), the TGI in [1], in [2], in experiment [3], in [4], in experiment [5] and in [6] was over 10 µM each time. For the same molecule, the TGI in experiment [7], in experiment [8], in experiment [9] and in [10] was over 10 µM in each case.

As to `COc1ccc(/C=N/n2c(Cc3ccc(Cl)cc3)n[nH]c2=O)c(OC)c1`, the TGI in experiment [1] was 66.6 µM; in experiment [2], 32 µM; in [3], over 100 µM; in experiment [4], over 100 µM; in experiment [5], over 100 µM; in [6] it was over 100 µM. Also, the TGI in experiment [7] was over 100 µM; in experiment [8], 52.2 µM; in experiment [9], over 100 µM; in experiment [10] it was over 100 µM.
